Test results from US20040072744A1, “Synthetic peptide as treatment for down's syndrome and schizophrenia” (priority 2002, published 2004).
Entries after “also recorded” stand apart in the source; their conditions may differ.

B1: NGF (protein)
chain: EDHPVHNLGEHSVCDSVSAWVTKTTATDIKGNTVTVMENVNLDNKVYKEYFFETKCKNPNPEPSGCRGIDSSHWNSYCTETDTFIKALTMEGNQASWRFIRIDTACVCVITKKTGN

What was measured:
Alzheimer's patients = conditions: oral administration, human clinical trials; cited from earlier work
PC12 cells = experiment: Neurite production on PC12 cells; assay type: cell-based, rat
Procedure: (§1) Adesh-10 (SEQ. ID. NO.: 2) is considered exemplary of the Adesh family of peptides and has been studied and tested to illustrate the invention. Venom derived NGF produced neurites on PC12 cells at 5 ng/ml while the concentration of Adesh-10 required was 1 μg/ml. NGF is toxic to PC 12 cells at the concentration of 5 μg/ml, while Adesh-10 is not toxic up to 100 μg/ml.

PC 12 cells = experiment: Toxicity to PC12 cells; assay type: cell-based, rat
Procedure: as §1

simian rotavirus (SA11) = experiment: Kinetics of replication of SA11 virus in MA104 cells in serum free medium with supplement; assay type: cell-based; conditions: 1 μg/ml trypsin; for SA11 virus titer Day 2: 1 μg/ml NGF or 5 μg/ml Adesh-10, day 2; for SA11 virus titer Day 4: 1 μg/ml NGF or 5 μg/ml Adesh-10, day 4; for SA11 virus titer Day 6: 1 μg/ml NGF or 5 μg/ml Adesh-10, day 6; for SA11 virus titer Day 8: 1 μg/ml NGF or 5 μg/ml Adesh-10, day 8
[1] = system: influenza virus A/TAI strain; experiment: Kinetics of replication of influenza A/TAI virus in MDCK cells in serum free medium with supplement; assay type: cell-based; conditions: 1 μg/ml trypsin; for A/TA1 virus titer Day 2: 1 μg/ml NGF or 5 μg/ml Adesh-10, day 2; for A/TA1 virus titer Day 4: 1 μg/ml NGF or 5 μg/ml Adesh-10, day 4; for A/TA1 virus titer Day 6: 1 μg/ml NGF or 5 μg/ml Adesh-10, day 6
NGF = NGF content in organ homogenates of orally treated mice by ELISA using anti-NGF; assay type: in vivo, Balb/c male mice; conditions: oral 100 μg/mouse for 7 days
Procedure: One year old Balb/c male mice (considered to be retired and non-productive) were given Adesh-10 orally for seven consecutive days, and the control set of mice received PBS. Two days after the completion of the treatment, the mice were sacrificed for organs. Organ homogenates were assayed for NGF content by simple enzyme-linked immunosorbent assay (ELISA), using anti-NGF.
Preparation of organ homogenates: Mice were used in compliance with U.S. Public Health Service policy on humane care and use of animals. One-year-old Balb/c male mice were divided into two groups each consisting of five. Mice in group I were given orally 100 μg/mouse in 50 μl volume of Adesh-10, the synthetic analog of NGF for seven consecutive days. The group II mice were given similar volume of PBS. Two days after the completion of the treatment with Adesh-10 or PBS the mice were sacrificed for organs. Organs from five of each group of mice were collected and one type of organ from five were pooled. The pool of the organs was homogenized in PBS by manual homogenizer. The homogenates were centrifuged and the supernatants for each pool organ were separated. Protein concentration for each supernatant was measured on spectrophotometer using a protein kit from Bio-Rad (USA catalogue 500-0006). The protein concentrations of the supernatants were adjusted to 100 μg/ml with PBS, as stocks for further testing.
Enzyme-linked immunosorbent assay (ELISA): ELISA tests were carried out in 96 well microtiter plates. The reagents for ELISA were purchased from Sigma-Aldrich Co. The stocks from mouse organs were diluted with carbonate-bicarbonate buffer of pH 9.4 to 10 μg/ml as coating antigen for ELISA. The wells of the plate were coated with antigen, 100 μl/well. The plate was left at room temperature (RT) overnight, after which it was emptied and washed three times (3×) with PBS. The wells were blocked with 250 μl/well of 3% fish skin gelatin. After 30 min. the plate was emptied and washed 3× with PBS. Anti-NGF made in rabbit was diluted from 1:300 in gelatin. Three wells received 100 μl of each dilution of anti-serum. Two-fold diluted anti-sera were used from 1:300 in triplicate. The antigen controls without antibody were incorporated. The plate was incubated at 37° C. in a humid incubator for 1 hr after which the plate was washed 3× with PBS. The horseradish peroxidase conjugated with rabbit IgG 100 μl/well were reacted, for 30 min. Finally, after washing, the wells of the plate were reacted with O-phenylenediamine-HCl (OPD) for color development. The plate was read after 30 min. and the OD was recorded at […]. The average of triplicate readings was expressed as ELISA titer/100 μl.
One year old Balb/c male mice were used for this research. Ten mice were used consisting of two groups five of each. Mice in group I were given orally 100 μg/mouse in 50 μl volume of Adesh-10, synthetic analog of NGF for seven consecutive days. The group II mice were given similar volume of PBS. Two days after the completion of the treatment the mice were sacrificed for organs. Organ homogenates were assayed for NGF by ELISA.

Down syndrome children = experiment: Treatment of Down syndrome children; assay type: in vivo, human; conditions: 100 μg/day, orally under the tongue or sub cutaneous injection
Procedure: In Humans: Several Down syndrome children were treated with Adesh-10. Adesh-10 was administered in the amount of 100 μg/day, either orally under the tongue, or by sub cutaneous injection.

| Molecule | concentration toxic to PC 12 cells (PC 12 cells) [µg/mL] | SA11 virus titer Day 2 (simian rotavirus (SA11)) [Log TCID50/ml] | SA11 virus titer Day 4 (simian rotavirus (SA11)) [Log TCID50/ml] | SA11 virus titer Day 6 (simian rotavirus (SA11)) [Log TCID50/ml] | SA11 virus titer Day 8 (simian rotavirus (SA11)) [Log TCID50/ml] | A/TA1 virus titer Day 2 [1] [Log TCID5/ml] | A/TA1 virus titer Day 4 [1] [Log TCID5/ml] | A/TA1 virus titer Day 6 [1] [Log TCID5/ml] | other results |
| --- | --- | --- | --- | --- | --- | --- | --- | --- | --- |
| O=C(CCn1cnc2c(=O)[nH]cnc21)Nc1ccc(C(=O)[O-])cc1.[K+] [AIT-082] |  |  |  |  |  |  |  |  | efficacy in Alzheimer's patients versus placebo (Alzheimer's patients): no difference between Alzheimer's patients treated with AIT-082 and placebo |
| N L G E H P V C D S (NLGEHPVCDS; CORRESPONDS TO POSITIONS 1-10 OF SEQ. ID. NO. 1) [Adesh-10] | > 100 | 3 | 6 | 6.5 | 8 | 4 | 5.1 | 6.2 | concentration required to produce neurites on PC12 cells (PC12 cells): 1 µg/mL; NGF concentration in organ, Treated: Bone (NGF; Bone, one year old male mice, organs 2 days after treatment): 900 ELISA titer/100 μl; NGF concentration in organ, Treated: Brain (NGF; Brain, one year old male mice, organs 2 days after treatment): 2400 ELISA titer/100 μl; NGF concentration in organ, Treated: Heart (NGF; Heart, one year old male mice, organs 2 days after treatment): 2400 ELISA titer/100 μl; NGF concentration in organ, Treated: Kidney (NGF; Kidney, one year old male mice, organs 2 days after treatment): 1800 ELISA titer/100 μl; NGF concentration in organ, Treated: Liver (NGF; Liver, one year old male mice, organs 2 days after treatment): 2400 ELISA titer/100 μl; NGF concentration in organ, Treated: Lung (NGF; Lung, one year old male mice, organs 2 days after treatment): 1800 ELISA titer/100 μl; NGF concentration in organ, Treated: Muscle (NGF; Muscle, one year old male mice, organs 2 days after treatment): 2400 ELISA titer/100 μl; NGF concentration in organ, Treated: Pancreas (NGF; Pancreas, one year old male mice, organs 2 days after treatment): 1200 ELISA titer/100 μl; NGF concentration in organ, Treated: Salivary (NGF; Salivary, one year old male mice, organs 2 days after treatment): 1200 ELISA titer/100 μl; NGF concentration in organ, Treated: Skin (NGF; Skin, one year old male mice, organs 2 days after treatment): 1200 ELISA titer/100 μl; NGF concentration in organ, Treated: Spleen (NGF; Spleen, one year old male mice, organs 2 days after treatment): 1200 ELISA titer/100 μl; NGF concentration in organ, Treated: Testis (NGF; Testis, one year old male mice, organs 2 days after treatment): 1800 ELISA titer/100 μl; increase in NGF level versus control (NGF; brain, muscle and testis): twofold increase; clinical effect in Down's syndrome children (Down syndrome children): good results; also recorded: improved physical, vocal, learning and memory abilities |
| Trypsin [reference compound] |  | 6.5 | 7.2 | 8 | 8.5 | 5.6 | 6 | 6.5 |  |
| B1 | 5 | 4 | 7 | 7.5 | 8.2 | 5 | 5.5 | 6.1 | concentration producing neurites on PC12 cells (PC12 cells): 5 ng/mL |
